Calls of active or inactive are those of the source. The rule behind the calls is not given here.
Legend:
[1] = Inhibition of tubulin microtubule disassembly
KB = test: Cytotoxicity against human KB cells; type: functional, cell-based

With `CC(C)CC[C@H](C[C@]12C[C@H](CCC(C)C)C(C)(C)[C@](CCC(C)C)(C(=O)C(C(=O)c3ccc(O)c(O)c3)=C1O)C2=O)C(C)C` [OCTAHYDROXANTHOCHYMOL] the Activity [1] was “inactive” and the IC50 (KB) was 20 µM.
In the case of `CC(=O)O[C@H]1C(=O)[C@@]2(C)[C@H]([C@H](OC(=O)c3ccccc3)[C@]3(O)C[C@H](OC(=O)[C@H](O)[C@@H](NC(=O)c4ccccc4)c4ccccc4)C(C)=C1C3(C)C)[C@]1(OC(C)=O)CO[C@@H]1C[C@@H]2O` [PACLITAXEL], the IC50 [1] is reported as 0.5 µM.
